{"source": "patent US20180186796A1", "about": "“COMPOUNDS AND USES THEREOF” (LEAD DISCOVERY SIENA S.R.L., priority 2014, published 2018)", "key": {"Recombinant human Src": {"target": "T1, Recombinant human Src (Homo sapiens, UniProt P12931)", "T1 construct": "purchased Upstate (Lake Placid, N.Y.)", "T1 sequence (P12931 whole entry)": "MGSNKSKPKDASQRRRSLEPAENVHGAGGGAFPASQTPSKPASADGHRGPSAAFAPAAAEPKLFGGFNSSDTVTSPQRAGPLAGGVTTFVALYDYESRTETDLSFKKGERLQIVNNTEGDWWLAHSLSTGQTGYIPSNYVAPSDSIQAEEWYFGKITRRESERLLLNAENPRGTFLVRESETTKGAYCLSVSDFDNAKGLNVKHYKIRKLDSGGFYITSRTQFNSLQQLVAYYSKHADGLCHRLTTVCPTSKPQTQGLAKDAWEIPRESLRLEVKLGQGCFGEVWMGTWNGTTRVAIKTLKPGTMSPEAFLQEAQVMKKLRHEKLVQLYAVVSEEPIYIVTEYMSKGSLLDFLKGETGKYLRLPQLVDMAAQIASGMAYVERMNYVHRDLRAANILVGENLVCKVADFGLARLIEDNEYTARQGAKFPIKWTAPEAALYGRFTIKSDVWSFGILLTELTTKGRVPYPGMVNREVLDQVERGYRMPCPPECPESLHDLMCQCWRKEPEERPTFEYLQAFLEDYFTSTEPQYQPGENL", "test": "Enzymatic assay on isolated Src", "assay_type": "biochemical", "settings": "mean of at least two experiments; read-out: Enzymatic Data (Ki, μM) c-Src"}, "SH-SY5Y cells [1]": {"system": "SH-SY5Y cells", "test": "Spheroid growth assay (SH-SY5Y)", "assay_type": "cell-based", "settings": "Homo sapiens; SH-SY5Y Neuroblastoma cell spheroid; read-out: Cellular Data (IC50, μM) SH-SY5Y"}, "SH-SY5Y cells [2]": {"system": "SH-SY5Y cells", "settings": "previously reported (ref 20); read-out: antiproliferative effect on SH-SY5Y NB cells (IC50); cited from earlier work"}, "[3]": {"test": "Microsomal stability assay", "settings": "percentage of unmodified drug, Table 8"}, "[4]": {"test": "PAMPA, intestinal (GI) permeability"}, "human normal fibroblasts": {"system": "human normal fibroblasts", "test": "Toxicity in human normal fibroblasts", "assay_type": "cell-based"}, "K562 cells": {"system": "K562 cells", "test": "Antiproliferative activity on human cell line K562", "assay_type": "cell-based"}, "recombinant Fyn": {"target": "recombinant Fyn (Homo sapiens, UniProt P06241)", "sequence (P06241 whole entry, looked up)": "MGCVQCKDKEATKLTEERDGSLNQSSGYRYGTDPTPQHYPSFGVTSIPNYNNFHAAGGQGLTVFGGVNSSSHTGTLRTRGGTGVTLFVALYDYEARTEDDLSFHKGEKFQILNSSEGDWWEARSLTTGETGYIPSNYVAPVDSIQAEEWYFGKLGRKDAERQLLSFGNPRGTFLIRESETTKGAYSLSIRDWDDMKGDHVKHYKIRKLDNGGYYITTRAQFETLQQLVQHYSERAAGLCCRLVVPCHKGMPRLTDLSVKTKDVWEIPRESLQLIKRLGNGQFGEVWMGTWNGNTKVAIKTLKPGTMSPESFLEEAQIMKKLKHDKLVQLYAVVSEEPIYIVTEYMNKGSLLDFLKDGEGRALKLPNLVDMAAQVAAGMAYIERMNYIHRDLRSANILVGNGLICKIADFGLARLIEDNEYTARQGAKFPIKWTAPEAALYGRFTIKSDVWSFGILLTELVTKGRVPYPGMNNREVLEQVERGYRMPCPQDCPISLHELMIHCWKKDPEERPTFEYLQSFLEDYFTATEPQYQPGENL", "test": "Enzymatic assay on isolated Fyn kinase"}, "[5]": {"system": "Fyn mediated phosphorylation of residue Tyr18 in Tau protein", "test": "Aβ42 induced Tyr18-Tau phosphorylation in differentiated SH-SY5Y cells", "assay_type": "cell-based, human", "description": "The neuroblastoma cell line SH-SY5Y was cultured in media obtained by mixing equal volume of MEM and HAM F12 supplemented with 15% fetal calf serum (FCS, Australian origin, Lonza), 100 U/ml penicillin, 100 μg/ml streptomycin and 2 mM L-glutamine (all from Euroclone) at 37° C. in humidified air with 5% CO2. The medium was changed every 48 hours. Cells were split at about 80% confluence and never cultured beyond passage 20. Cell differentiation was achieved by pre-treating for 5 days the SH-SY5Y cells with media containing 1% FCS and 10 μM retinoic acid (RA, Sigma Aldrich). Subsequently cells were treated for other 7 days in media with no serum and supplemented with 50 ng/ml of human recombinant brain derived neurotrophic factor (BDNF, Peprotech), 10 ng/ml human recombinant beta nerve growth factor (NGF, Peprotech), 10 ng/ml neuregulin 1 beta 2 protein (NRG, Abcam) and 9.35 μg/ml vitamin D3 (Sigma Aldrich). To confirm full neuronal differentiation, the expression of mature isoforms of Tau were checked. Differentiated cells were treated for 1.5, 3 and 6 hours with media containing 10 μM Aβ42 oligomer/protofibrils and N2 supplement (Life Technologies), in the presence or in the absence of Fyn inhibitors dissolved in DMSO. As control, cells were treated with media containing equivalent amounts of DMSO.\nBriefly, Aβ42 peptides (Sigma) were dissolved in 1,1,1,3,3,3-hexafluoro-2-propanol and lyophilized to completely remove the solvent. Lyophilized Aβ42 peptides were reconstituted in DMSO to a working concentration of 10 mM, diluted 1:100 using HAM F12 (without phenol red and glutammine), vortexed for 15 sec and incubated 24 hours at 4° C. A042 oligomer/protofibrils were visualized by SDS-PAGE and silver staining."}}, "note": "Read-outs that look alike come from different tables or passages of the source."}
{"smiles": "Fc1ccccc1CNc1nc(SCCN2CCOCC2)nc2c1cnn2CCc1ccccc1", "values": [{"measurement": "Ki", "setting": "Recombinant human Src", "result": 0.17, "unit": "µM"}, {"measurement": "IC50", "setting": "SH-SY5Y cells [1]", "result": 63, "unit": "µM"}]}
{"smiles": "CSc1nc(Nc2cccc(Cl)c2)c2cnn(CCc3ccccc3)c2n1", "note": "[Si214, N-(3-chlorophenyl)-6-(methylthio)-1-phenethyl-1H-pyrazolo[3,4-d]pyrimidin-4-amine]", "values": [{"measurement": "IC50", "setting": "SH-SY5Y cells [2]", "result": 80, "unit": "nM"}, {"measurement": "PAMPA BBB (MR %)", "setting": "PAMPA, BBB permeability; Membrane Retention, BBB", "result": "(55.7) %"}, {"measurement": "Papp at 5 h, 0.5 mM", "setting": "PAMPA, BBB permeability; PAMPA, pH 7.4", "result": 1.48, "unit": "×10⁻⁶ cm/s"}, {"measurement": "Metabolic Stab. %", "setting": "[3]", "result": 99.0, "unit": "%"}, {"measurement": "PAMPA GI", "setting": "[4]; Gastrointestinal PAMPA, Table 8", "result": "0 10^−6 cm · sec^−1"}, {"measurement": "PAMPA GI (MR %)", "setting": "[4]; Membrane Retention, GI", "result": "(78.0) %"}]}
{"smiles": "Nc1ncnc2c1c(-c1ccc(Cl)cc1)nn2CC(Cl)c1ccccc1", "note": "(stereo not shown) [Si308, 3-(4-Chlorophenyl)-1-(2-chloro-2-phenylethyl)-1H-pyrazolo[3,4-d]pyrimidin-4-amine]", "values": [{"measurement": "cell toxicity in human normal fibroblasts", "setting": "human normal fibroblasts", "result": "did not showed any sign of cell toxicity"}, {"measurement": "IC50 for cell viability K562", "setting": "K562 cells", "result": "submicromolar range"}, {"measurement": "IC50", "setting": "K562 cells; Homo sapiens, K562, read-out: Cellular Data (IC50, μM) K562", "result": "0.56 ± 0.01", "unit": "µM"}, {"measurement": "Ki", "setting": "recombinant Fyn", "result": 95, "unit": "nM"}, {"measurement": "Ki", "setting": "recombinant Fyn; read-out: Ki Fyn", "result": 70, "unit": "nM"}, {"measurement": "melting point", "result": "150 to 151", "unit": "°C"}, {"measurement": "duration of inhibitory activity on Tau phosphorylation", "setting": "[5]; after compound administration", "result": "effective up to six hours"}, {"measurement": "Aβ42 induced Tyr18-Tau phosphorylation", "setting": "[5]; dose dependent", "result": "significantly affected"}]}
